Entries after “also recorded” stand apart in the source; their conditions may differ.
Key:
[1] = test system: Dopamin; experiment: Plasma dopamine determination (method of Weth) in patients with circulatory disorders after dosing; format: in vivo, Patienten; conditions: for Dopamin MW: mean of 12 patients
From the text: Die durch die erfindungsgemäß verwendeten N-(Aminoacyl)-aminosäuren erhöhte Freisetzung von Dopamin bei gleichzeitiger Senkung des Prolaktins konnte durch pharmakologische Tests veranschaulicht und bewiesen werden. Die Dopaminbestimmung wurde nach G. Weth, "Das Verhalten der Neurotransmitter....", Dissertation, Würzburg, 1987, S. 123-138, durchgeführt. Die Bestimmung von Prolaktin wurde radioimmunologisch nach den Methoden von P. Hwang, H. Guyda, H. Friesen, Proc. Nat. Sci. (USA) 1971,68-8, S.1902-06 durchgeführt.
Für die Untersuchungen wurden 2x12 Patienten (Alter 75±10 Jahre) herangezogen, die unter Durchblutungsstörungen, sowohl peripheren als auch zentralen, litten. Bei diesen Patienten wurden sowohl vor der Gabe von Enalaprilhydrogenmaleat, als auch 15, 30, 60, und 120 Minuten nach der Gabe von Enalaprilhydrogenmaleat Dopamin und Prolaktin bestimmt.
Die Patienten bekamen sublingual […] Enalaprilhydrogenmaleat verabreicht (RR zwischen 100/70 und 170/110; MW 130/90 mm Hg).
Die Bestimmung der Dopamin- und Prolaktinwerte wurde wie folgt vorgenommen. In Zeitabschnitten von 15, 30, 60 und 120 Minuten wurden dem Patienten je 5 ml Blut entnommen und in speziell präparierten Vakuum-Behältern, die Glutathion und EDTA enthielten gegeben. Das Blut wird sofort auf 2°C abgekühlt und bei 2°C zentrifugiert. Das überstehende Blutplasma wurde bis zur Dopamin- und Prolaktinbestimmung bei minus 80 °C tiefgefroren.
Die Dimensionsangaben betragen für Dopamin pg/ml bzw. ng/l und für Prolaktin ng/ml.

[2] = test system: Prolaktin; experiment: Plasma prolactin determination by radioimmunoassay (method of Hwang et al.) in patients after dosing; format: in vivo, Patienten; conditions: for Prolaktinsenkung: average weight 60 kg

CCOC(=O)[C@H](CCc1ccccc1)N[C@@H](C)C(=O)N1CCC[C@H]1C(=O)O [Enalaprilhydrogenmaleat]
Dopamin MW ([1]; 15 min after 20 mg Enalaprilhydrogenmaleat, plasma): 143 pg/mL
Dopamin MW ([1]; 30 min after 20 mg Enalaprilhydrogenmaleat, plasma): 188 pg/mL
Dopamin MW ([1]; 60 min after 20 mg Enalaprilhydrogenmaleat, plasma): 253 pg/mL
Dopamin MW ([1]; 90 min after 20 mg Enalaprilhydrogenmaleat, plasma): 230 pg/mL
Dopamin MW ([1]; 120 min after 20 mg Enalaprilhydrogenmaleat, plasma): 182 pg/mL
Höhepunkt des Dopaminanstiegs (time) ([1]; Fig. 1, 20 mg sublingual, average weight 60 kg, plasma): 60 min
Anstieg des Dopamins ([1]; in words, 15 min after sublingual dosing): hochsignifikanten Anstieg; also recorded: signifikanten Anstieg
Dopamin MW ([1]; time 0 (before dosing), 20 mg Enalaprilhydrogenmaleat, plasma): 105 pg/mL
Prolaktin MW ([2]; 15 min after 20 mg Enalaprilhydrogenmaleat, plasma, mean of 12 patients): 15,4 ng/ml
Prolaktin MW ([2]; 30 min after 20 mg Enalaprilhydrogenmaleat, plasma, mean of 12 patients): 14,3 ng/ml
Prolaktin MW ([2]; 60 min after 20 mg Enalaprilhydrogenmaleat, plasma, mean of 12 patients): 11,9 ng/ml
Prolaktin MW ([2]; 90 min after 20 mg Enalaprilhydrogenmaleat, plasma, mean of 12 patients): 10,8 ng/ml
Prolaktin MW ([2]; 120 min after 20 mg Enalaprilhydrogenmaleat, plasma, mean of 12 patients): 10,2 ng/ml
Senkung des Prolaktins ([2]; in words, 30 min after sublingual dosing): deutlichen Senkung
Prolaktinsenkung ([2]; in words, Fig. 2, 30 min after 20 mg oral): signifikante
Prolaktinsenkung ([2]; in words, Fig. 2, 60 min after 20 mg oral): hochsignifikante Prolaktinsenkung
Abfall von Prolaktin ([2]; in words, after 25 mg (so in the source)): signifikanten Abfall
Prolaktin MW ([2]; time 0 (before dosing), 20 mg Enalaprilhydrogenmaleat, plasma, mean of 12 patients): 16,2 ng/ml

CCC[C@H](N[C@@H](C)C(=O)N1[C@H](C(=O)O)C[C@@H]2CCCC[C@@H]21)C(=O)OCC [Perindopril]
Prolaktin MW ([2]; 30 min after 20 mg Perindopril oral, mean of 12 patients (average weight 60 kg)): 12,3 pg/ml
Prolaktin im Blutplasma ([2]; Fig. 3, 30 min after 20 mg oral): 12 ng/mL
Prolaktin im Blutplasma ([2]; Fig. 3, 90 min after 20 mg oral): 7 ng/mL
Anfangskonzentration Prolaktin ([2]; Fig. 3, before 20 mg oral, blood plasma): 15 ng/mL
